Like-named read-outs stand apart in the source and are kept apart here.
Assays:
[1] = test system: cancer cells exhibiting reduced MRN complex formation and/or functionality; test: Growth and/or survival inhibition of cancer cells with reduced MRN complex by clastogenic agents; type: cell-based
[2] = test system: murine embryonic fibroblast cells that express a low level of Mre11 (Mre11-impaired; Mre11^ATLD1/ATLD1); test: Colony formation of Mre11-impaired vs WT murine embryonic fibroblasts exposed to DNA damaging agents; type: cell-based
[3] = cancer cells with reduced MRN complex formation and/or functionality, no experiment described

| SMILES | sensitivity to growth and/or survival inhibition [1, 3] | further results |
| --- | --- | --- |
| N.N.O=C([O-])C1(C(=O)[O-])CCC1.[Pt+2] [carboplatin] | increased sensitivity | – |
| COc1cccc2c1C(=O)c1c(O)c3c(c(O)c1C2=O)C[C@@](O)(C(=O)CO)C[C@@H]3O[C@H]1C[C@H](N)[C@H](O)[C@H](C)O1 [Adriamycin, doxorubicin] | do not exhibit increased sensitivity | susceptibility (proportion colony formation vs. concentration) of Mre11-impaired cells as compared to WT cells ([2]; Mre11^ATLD1/ATLD1 vs WT murine embryonic fibroblasts, mean of triplicate samples): equivalent response; growth and/or survival inhibition of a cell having a reduced level of MRN complex formation and/or functionality ([2]; summary statement of the description): no effect |
| O=C1c2c(O)ccc(O)c2C(=O)c2c(NCCNCCO)ccc(NCCNCCO)c21 [mitoxantrone] | do not exhibit increased sensitivity | – |
| COc1cccc2c1C(=O)c1c(O)c3c(c(O)c1C2=O)C[C@@](O)(C(C)=O)C[C@@H]3O[C@H]1C[C@H](N)[C@H](O)[C@H](C)O1 [daunorubicin] | do not exhibit increased sensitivity | – |
| CCc1c2c(nc3ccc(OC(=O)N4CCC(N5CCCCC5)CC4)cc13)-c1cc3c(c(=O)n1C2)COC(=O)[C@]3(O)CC [irinotecan] | increased sensitivity | – |
| CCCCC(=O)OCC(=O)[C@]1(O)Cc2c(O)c3c(c(O)c2[C@@H](O[C@H]2C[C@H](NC(=O)C(F)(F)F)[C@H](O)[C@H](C)O2)C1)C(=O)c1c(OC)cccc1C3=O [valrubicin] | do not exhibit increased sensitivity | – |
| O=P1(N(CCCl)CCCl)NCCCO1 (stereo not shown) [cyclophosphamide] | – | sensitivity to growth and/or survival inhibition [1]: increased sensitivity |
| COc1cccc2c1C(=O)c1c(O)c3c(c(O)c1C2=O)C[C@@](O)(C(=O)CO)C[C@@H]3O[C@H]1C[C@H](N)[C@@H](O)[C@H](C)O1 [epirubicin] | do not exhibit increased sensitivity | – |
| CC(=O)[C@]1(O)Cc2c(O)c3c(c(O)c2[C@@H](O[C@H]2C[C@H](N)[C@H](O)[C@H](C)O2)C1)C(=O)c1ccccc1C3=O [idarubicin] | do not exhibit increased sensitivity | – |
| COS(C)(=O)=O [methymethanesulfate, methyl methanesulfonate] | increased sensitivity | – |
| CC[C@@]1(O)C(=O)OCc2c1cc1n(c2=O)Cc2cc3c(CN(C)C)c(O)ccc3nc2-1 [topotecan] | increased sensitivity | – |
| N.N.[Cl][Pt][Cl] [cisplatin] | increased sensitivity | – |
| CO[C@@]12[C@H](COC(N)=O)C3=C(C(=O)C(C)=C(N)C3=O)N1C[C@@H]1N[C@@H]12 [mitomycin C] | increased sensitivity | – |
| CC[C@@]1(O)C(=O)OCc2c1cc1n(c2=O)Cc2cc3ccccc3nc2-1 [campththecin, camptothecin] | increased sensitivity | – |

— patent US20150313922A1, “COMPOSITIONS AND METHODS FOR THE TREATMENT OF CANCERS ASSOCIATED WITH A DEFICIENCY IN THE MRE11/RAD50/NBS1 DNA DAMAGE REPAIR COMPLEX” (SLOAN-KETTERING INSTITUTE FOR CANCER RESEARCH, priority 2012, published 2015)
